Data set [1] addresses T1, retinoic acid 4-hydroxylase (CYP26A1) (Homo sapiens, UniProt O43174).
T1 construct: endogenous in cells; host or cells: MCF-7 human breast cancer cells
T1 sequence (O43174 1-497): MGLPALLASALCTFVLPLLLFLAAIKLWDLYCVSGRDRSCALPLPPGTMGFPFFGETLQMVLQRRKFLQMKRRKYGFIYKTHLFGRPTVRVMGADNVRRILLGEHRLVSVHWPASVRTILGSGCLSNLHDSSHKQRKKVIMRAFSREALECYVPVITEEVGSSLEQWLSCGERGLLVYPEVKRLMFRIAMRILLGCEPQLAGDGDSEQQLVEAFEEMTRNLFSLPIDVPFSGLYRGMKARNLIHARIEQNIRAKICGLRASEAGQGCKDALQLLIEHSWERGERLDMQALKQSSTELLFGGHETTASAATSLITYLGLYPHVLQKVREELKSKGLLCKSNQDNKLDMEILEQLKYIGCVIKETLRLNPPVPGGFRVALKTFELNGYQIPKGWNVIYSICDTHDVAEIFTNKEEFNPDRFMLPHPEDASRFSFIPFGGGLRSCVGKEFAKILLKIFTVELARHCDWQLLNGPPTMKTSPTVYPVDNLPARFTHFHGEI
The data set is described as follows: MCF-7 cellular assay for inhibition of metabolism of all-trans retinoic acid. Format: cell-based. Particulars: mean (±5%) of two experiments.
Description: The HPLC system was equipped with a high-pressure pump (Milton–Roy pump, Stone, UK), injector with a 50 μL loop connected to a beta-RAM radioactivity detector, connected to a Compaq™ computer running Laura® data acquisition and analysis software. This enabled online detection and quantification of radioactive peaks. The 10 μM C18 μBondapak™ 3.9 × 300 mm HPLC column (Waters, UK) was used for the all-trans retinoic acid metabolism studies. The HPLC column operating at an ambient temperature was used to separate the metabolites, which were eluted with acetonitrile/1% ammonium acetate in water/acetic acid (75:25:0.1, v/v/v) at a flow rate of 1.9 mL/min. The Ecoscint™ was used as the flow scintillation fluid.
The separated [^3H]-metabolites were quantitatively calculated from the areas under the curves.

A further data set in a line: MRC5 toxicity assay. Format: cell-based, human. Particulars: human, MRC-5 human fetal lung fibroblast cells, MRC-5 cells, 96-h incubation, mean of triplicate; read-out: Cytotoxicity IC50 on MRC-5 cells. Put shortly: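 MRC5 fibroblasts in RPMI 1640 with 10% FBS were exposed to compounds at 100, 10 and 1 µM in triplicate for 96 h. Viability was read by Uptiblue fluorescence after a 4-h dye incubation. IC50 is the mean of triplicates, and toxicity index = MRC5 IC50 / geometric mean MIC against Candida spp.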

Another data set has as its system C. krusei. The data set is described as follows: Anti-Candida in vitro assay, C. krusei strains. Format: cell-based. The conditions noted are these: Pichia kudriavzevii; span over the C. krusei strains tested. As to the method:
Test fungal strains were obtained from the American Type Culture Collection (ATCC) or were clinical isolates from the Laboratory of Parasitology and Medical Mycology, Centre Hospitalier Universitaire (CHU) of Nantes. The strains were maintained on Sabouraud agar slants and were subcultured 24 h before used. The activity of the target compounds 8a–g and 11a–m was determined by the method previously described. Briefly, molecules were diluted in RPMI 1640 medium supplemented with 0.165 M morpholinopropanesulphonic acid (Sigma-Aldrich, Saint-Quentin Fallavier, France), 2% glucose, and antibiotics. Candida suspensions were prepared in RPMI 1640 medium (Sigma-Aldrich, Saint-Quentin Fallavier, France) adjusted to give a final concentration of 10^3 cells/mL, and a 96-well microplate (Nunc, D. Dutscher, Brumath, France) was seeded with 100 µL. Each concentration of molecules (100 µL) to be tested was added (in triplicate) and plates were incubated at 37 °C for 24 h. The cellular viability was evaluated on the Fluorolite 1000 (Dynatech, France) with an excitation at 550 nm and an emission at 590 nm after a 4 h incubation with 10 µL of Alamar Blue®. […] MIC was expressed as the mean of the triplicate values. KTC and FLC were used as standards.

In data set [2] the test system is human fetal lung fibroblast (MRC-5) cells. Further details: method as in PMID 31899979. Particulars: previously determined ref 28, read-out: Cytotoxicity IC50 on MRC-5 cells; cited from earlier work.

In brackets after ≈: the same amount, converted by molar mass.

For `O[C@@](Cn1cncn1)(Cn1ccc2ccccc21)c1ccc(Cl)cc1Cl` [(+)-(R)-8g], in data set [1], the IC50 (in general, the point on the concentration scale where inhibition reaches its midpoint) came out at 34 µM. The IC50 at 96 h in the data set “MRC5 toxicity assay” was 32 µM.
For the compound `O[C@](Cn1cncn1)(Cn1ccc2ccccc21)c1ccc(Cl)cc1Cl` [(−)-(S)-8g], in data set [1], the IC50 worked out at 18 µM. In the data set on C. krusei, the MIC – broadly, the smallest concentration in the dilution series that meets the test's criterion for growth inhibition – lay in the range of 0.039 to 0.167 µg/mL (≈ 0.101 to 0.431 µM). Besides, the IC50 at 96 h in the data set “MRC5 toxicity assay” worked out at 30 µM.
For `OC(Cn1cncn1)(Cn1ccc2ccccc21)c1ccc(Cl)cc1Cl` (stereo not shown) [Compound 8g, 2-(2,4-Dichlorophenyl)-3-(1H-indol-1-yl)-1-(1H-1,2,4-triazol-1-yl)-propan-2-ol], the melting point (in general, the temperature, or range, at which the solid turns liquid) was in the range of 161 to 162 °C. Besides, in data set [2], the IC50 was 35 µM.

(Values after paper PMC7464559, “Synthesis, Optimization, Antifungal Activity, Selectivity, and CYP51 Binding of New 2-Aryl-3-azolyl-1-indolyl-propan-2-ols” (Pharmaceuticals, 2020).)
